Results as given in PubChem BioAssay (NCI).
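Dose response: 5 concentrations. Exposure: 48 h. Format: 96-well plates. Endpoint: linear interpolation; highest concentration if not reached. TGI marks complete inhibition of growth.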

What was measured:
Experiment in all cases: NCI-60 cell line screen, 48 h
UO-31 renal = system: UO-31 renal
SK-OV-3 ovarian = system: SK-OV-3 ovarian
MALME-3M melanoma = system: MALME-3M melanoma
MDA-MB-231 breast = system: MDA-MB-231 breast
UACC-62 melanoma = system: UACC-62 melanoma
EKVX NSCLC = system: EKVX NSCLC
SF-268 CNS = system: SF-268 CNS
A498 renal = system: A498 renal
LOX IMVI melanoma = system: LOX IMVI melanoma
RPMI-8226 leukemia = system: RPMI-8226 leukemia
HL-60(TB) leukemia = system: HL-60(TB) leukemia
NCI-H226 lung = system: NCI-H226 lung
U251 CNS = system: U251 CNS
MDA-N = system: MDA-N
IGROV1 ovarian = system: IGROV1 ovarian
DU-145 prostate = system: DU-145 prostate
M14 melanoma = system: M14 melanoma
HS 578T breast = system: HS 578T breast
HT29 colon = system: HT29 colon
NCI/ADR-RES ovarian = system: NCI/ADR-RES ovarian
NCI-H23 lung = system: NCI-H23 lung
SW-620 colon = system: SW-620 colon
ACHN renal = system: ACHN renal
786-0 renal = system: 786-0 renal
HCT-15 colon = system: HCT-15 colon
MCF7 breast = system: MCF7 breast
T-47D breast = system: T-47D breast
OVCAR-8 ovarian = system: OVCAR-8 ovarian
HCC-2998 colon = system: HCC-2998 colon
NCI-H460 lung = system: NCI-H460 lung
SN12C renal = system: SN12C renal
PC-3 prostate = system: PC-3 prostate
SF-295 CNS = system: SF-295 CNS
KM12 colon = system: KM12 colon
NCI-H522 lung = system: NCI-H522 lung
HCT-116 colon = system: HCT-116 colon
COLO 205 colon = system: COLO 205 colon
UACC-257 melanoma = system: UACC-257 melanoma
SK-MEL-5 melanoma = system: SK-MEL-5 melanoma
K-562 leukemia = system: K-562 leukemia
SR leukemia = system: SR leukemia
BT-549 breast = system: BT-549 breast
HOP-92 NSCLC = system: HOP-92 NSCLC
RXF 393 renal = system: RXF 393 renal
SK-MEL-28 melanoma = system: SK-MEL-28 melanoma
MOLT-4 leukemia = system: MOLT-4 leukemia
SK-MEL-2 melanoma = system: SK-MEL-2 melanoma
MDA-MB-435 = system: MDA-MB-435
A549 NSCLC = system: A549 NSCLC
OVCAR-5 ovarian = system: OVCAR-5 ovarian
CAKI-1 renal = system: CAKI-1 renal
CCRF-CEM leukemia = system: CCRF-CEM leukemia
SNB-19 CNS = system: SNB-19 CNS
SNB-75 CNS = system: SNB-75 CNS
SF-539 CNS = system: SF-539 CNS
OVCAR-3 ovarian = system: OVCAR-3 ovarian
HOP-62 NSCLC = system: HOP-62 NSCLC
OVCAR-4 ovarian = system: OVCAR-4 ovarian
TK-10 renal = system: TK-10 renal

Measured: TGI

CCOC(=O)C1(C(C)=O)OC(=O)c2cnccc21 (stereo not given)
> 100 µM: UO-31 renal | SK-OV-3 ovarian | MALME-3M melanoma | MDA-MB-231 breast | UACC-62 melanoma | EKVX NSCLC | SF-268 CNS | A498 renal | LOX IMVI melanoma | RPMI-8226 leukemia | HL-60(TB) leukemia | NCI-H226 lung | U251 CNS | MDA-N | IGROV1 ovarian | DU-145 prostate | M14 melanoma | HS 578T breast | HT29 colon | NCI/ADR-RES ovarian | NCI-H23 lung | SW-620 colon | ACHN renal | 786-0 renal | HCT-15 colon | MCF7 breast | T-47D breast | OVCAR-8 ovarian | HCC-2998 colon | NCI-H460 lung | SN12C renal | PC-3 prostate | SF-295 CNS | KM12 colon | NCI-H522 lung | HCT-116 colon | COLO 205 colon | UACC-257 melanoma | SK-MEL-5 melanoma | K-562 leukemia | SR leukemia | BT-549 breast | HOP-92 NSCLC | RXF 393 renal | SK-MEL-28 melanoma | MOLT-4 leukemia | SK-MEL-2 melanoma | MDA-MB-435 | A549 NSCLC | OVCAR-5 ovarian | CAKI-1 renal | CCRF-CEM leukemia | SNB-19 CNS | SNB-75 CNS | SF-539 CNS | OVCAR-3 ovarian

CCCCCCC(C)c1ccc2c(c1)C(=O)c1nc3ccncc3c(=O)n1-2 (stereo not given)
> 31.5 µM: SK-MEL-28 melanoma
> 39.1 µM: COLO 205 colon
> 31.4 µM: NCI-H23 lung
11.4 µM: M14 melanoma
20.2 µM: SF-295 CNS
> 32.1 µM: UACC-257 melanoma
35.2 µM: A549 NSCLC
> 100 µM: SK-OV-3 ovarian | MDA-MB-231 breast | SF-268 CNS | A498 renal | HOP-92 NSCLC
9.12 µM: OVCAR-3 ovarian
> 33.8 µM: BT-549 breast
18.7 µM: SK-MEL-2 melanoma
> 43.4 µM: EKVX NSCLC
> 29.5 µM: ACHN renal
2.57 µM: SR leukemia
0.6 µM: MDA-N
14.7 µM: RXF 393 renal
> 32.2 µM: SNB-75 CNS
> 25.4 µM: SK-MEL-5 melanoma
16.1 µM: PC-3 prostate
10.3 µM: OVCAR-4 ovarian
32.7 µM: MCF7 breast
> 45.3 µM: 786-0 renal
> 30.5 µM: KM12 colon
21.7 µM: OVCAR-5 ovarian
> 33 µM: SNB-19 CNS
15.7 µM: NCI/ADR-RES ovarian
> 36.8 µM: HCT-116 colon
> 30.6 µM: SW-620 colon
25.6 µM: HS 578T breast
0.9 µM: MALME-3M melanoma
> 32.3 µM: NCI-H226 lung
8.78 µM: HT29 colon
> 57.7 µM: HCT-15 colon
> 34.4 µM: IGROV1 ovarian
> 35.1 µM: DU-145 prostate
4.09 µM: MOLT-4 leukemia
> 45.2 µM: OVCAR-8 ovarian
> 40.8 µM: T-47D breast
20.3 µM: SF-539 CNS
> 45 µM: U251 CNS
5.83 µM: CCRF-CEM leukemia
35.7 µM: HOP-62 NSCLC
> 36.9 µM: UACC-62 melanoma
> 65.8 µM: TK-10 renal
> 34.7 µM: NCI-H460 lung
2.91 µM: K-562 leukemia
> 39.6 µM: CAKI-1 renal
> 34.9 µM: SN12C renal
> 35.7 µM: UO-31 renal
> 20.5 µM: HCC-2998 colon
1.18 µM: HL-60(TB) leukemia
1.17 µM: MDA-MB-435
3.97 µM: RPMI-8226 leukemia

CC(=O)OCCOCn1cc(C=O)c2ccccc21
> 100 µM: UO-31 renal | SK-OV-3 ovarian | MALME-3M melanoma | MDA-MB-231 breast | UACC-62 melanoma | EKVX NSCLC | SF-268 CNS | HOP-62 NSCLC | LOX IMVI melanoma | RPMI-8226 leukemia | HL-60(TB) leukemia | U251 CNS | MDA-N | TK-10 renal | IGROV1 ovarian | DU-145 prostate | M14 melanoma | HS 578T breast | HT29 colon | NCI/ADR-RES ovarian | NCI-H23 lung | SW-620 colon | ACHN renal | 786-0 renal | HCT-15 colon | MCF7 breast | T-47D breast | OVCAR-8 ovarian | HCC-2998 colon | NCI-H460 lung | SN12C renal | PC-3 prostate | SF-295 CNS | KM12 colon | NCI-H522 lung | HCT-116 colon | COLO 205 colon | UACC-257 melanoma | SK-MEL-5 melanoma | K-562 leukemia | SR leukemia | BT-549 breast | HOP-92 NSCLC | RXF 393 renal | SK-MEL-28 melanoma | MOLT-4 leukemia | SK-MEL-2 melanoma | MDA-MB-435 | A549 NSCLC | OVCAR-5 ovarian | CAKI-1 renal | CCRF-CEM leukemia | SNB-19 CNS | SNB-75 CNS | SF-539 CNS | OVCAR-3 ovarian
3.89 µM: A498 renal
